Laboratory results: US9051345B2, “Metalloinsertor complexes targeted to DNA mismatches” (CALIFORNIA INSTITUTE OF TECHNOLOGY, priority 2011, dated 2015)
Peptide text beside a SMILES is read from it. * marks the point of attachment. Cbz = O=C(OCc1ccccc1)*; CH2F = FC*

Columns and labels:
HCT116O cells [1] = experiment: MTT cytotoxicity assay; assay type: cell-based, human; settings: for effect of PARP inhibitor on the selective MMR-dependent effects of the rhodium compound: with 20 μM [Rh(HDPA)2chrysi]^3+, HCT116N versus HCT116O
Description: Cytotoxicity assays were performed as described in Mosmann, 1983, J. Immunol. Methods, 65, 55-63, the entire contents of which is incorporated herein by reference. HCT116N and HCT116O cells were plated in 96-well plates at 50,000 cells/well and incubated with rhodium for the durations specified. After incubation with the indicated rhodium complexes, cells were labeled with MTT for 4 hours at 37° C. under 5% CO2 and humidified atmosphere. The resulting formazan crystals were dissolved with solubilizing reagent purchased from Roche according to the manufacturer's instructions. The dissolved formazan was quantified as the absorbance at 570 nm minus the background absorbance at 690 nm. Percent viability was determined as the ratio of the amount of formazan in the treated cells to that of the untreated cells.
In order to elucidate the mechanism of action for the cytotoxicity caused by a metalloinsertor complex of Formula I, the MTT cytotoxicity assay was repeated in the absence and presence of the pan-caspase inhibitor Z-VAD-FMK. This inhibitor works by irreversibly binding to the active site of caspases which participate in the apoptotic pathway. […] The HCT116N and HCT116O cell lines were treated with 0-30 μM of the [Rh(HDPA)2chrysi]^3+ complex for 24-72 hours. […]
In order to determine the mechanism of action for cytotoxicity caused by a metalloinsertor complex of Formula I, the MTT cytotoxicity assay was repeated in conjunction with a panel of poly-ADP ribose polymerase (PARP) inhibitors: DPQ, 3-AB, 4-AN, and ABT-888, as described in Costantino et al., 2001, J. Med. Chem., 44, 3786-3794; Purnell et al., 1980, Biochem. J. 185, 775-777; Banasik et al., 1992, J. Biol. Chem. 267, 1569-1575; and Donawho et al., 2007, Clin. Cancer Res., 13, 2728-2737, the entire contents of all of which are incorporated herein by reference. The HCT116N and HCT116O cell lines were treated with 0 or 20 μM of the [Rh(HDPA)2chrysi]^3+ complex for 72 hours, with or without one of the four inhibitors. The inhibitor 3,4-Dihydro-5[4-(1-piperindinyl)butoxy]-1(2H)-isoquinoline (DPQ) was added to a final concentration of 0, 25, or 50 μM; the inhibitor 3-aminobenzamide (3-AB) was added to a final concentration of 0, 2, or 3 mM; the inhibitor 4-amino-1,8-napthalimide (4-AN) was added to a final concentration of 0, 10, or 20 μM; and the inhibitor 2-((R)-2-Methylpyrrolidin-2-yl)-1H-benzimidazole-4-carboxamide (ABT-888) was added to a final concentration of 0, 5, or 10 μM. […] For example, in the case of the compound DPQ, this difference was 43±2.7% without inhibitor and 0.6±3.0% with inhibitor.

HCT116O cells [2] = experiment: ICP-MS assay, nuclear and mitochondrial rhodium accumulation; assay type: cell-based, human; settings: 10 uM, 24 h, comparison in words
Description: To assay the subcellular localization of the rhodium complexes, an inductively coupled plasma mass spectrometry (ICP-MS) assay was used to quantify the uptake of the complexes in both whole cell extracts and nuclear and mitochondrial fractions.
Mitochondrial Rhodium Accumulation. With reference to FIG. 31B, HCT116O cells were plated in 75 cm^2 culture flasks at 2.0×10^7 cells/plate and incubated at 37° C., 5% CO2 for 24 h. Rhodium was added to 10 uM and cells were grown for an additional 24 h. The cells were then harvested by trypsinization and centrifuged for 5 min at 1,200 rpm. The supernatants were decanted, and the cell pellets were resuspended in 1 ml cold PBS (pH 7.2). The cells were centrifuged again for 5 min at 1,200 rpm. The supernatants were discarded, and the resultant pellets were resuspended in 0.5 ml mitochondrial extraction buffer (200 mM mannitol, 68 mM sucrose, 50 mM Pipes, 50 mM KCl, 5 mM EGTA, 2 mM MgCl2; 1 mM DTT and protease inhibitors were added right before use). The samples were incubated on ice for 20 min, and the suspensions were homogenized via passage through a needle and syringe (35×). The homogenized cells were then centrifuged for 5 min at 750 rpm. The supernatants were collected and spun again at 14,000 g for 10 min. The supernatants were decanted, and the resulting mitochondrial pellet was suspended in 0.8 ml H2O via probe sonication. […]

HCT116O cells [3] = settings: HCT116N and HCT116O; called known; cited from earlier work

Compound	effect of PARP inhibitor on the selective MMR-dependent effects of the rhodium compound (HCT116O cells [1]; MTT, 72 hours)	selective cytotoxicity, MMR-deficient HCT116O versus MMR-proficient HCT116N cells (HCT116O cells [1])	further results
NC(=O)c1cccc(N)c1 [3-AB, 3-aminobenzamide, reference compound]	completely abolished the selective MMR-dependent effects	–	–
Nc1ccc2c3c(cccc13)C(=O)NC2=O [4-AN, 4-amino-1,8-napthalimide, reference compound]	completely abolished the selective MMR-dependent effects	–	–
C[C@]1(c2nc3c(C(N)=O)cccc3[nH]2)CCCN1 [ABT-888, 2-((R)-2-Methylpyrrolidin-2-yl)-1H-benzimidazole-4-carboxamide, reference compound]	completely abolished the selective MMR-dependent effects	–	–
O=C1NCCc2c(OCCCCN3CCCCC3)cccc21 [DPQ, 3,4-Dihydro-5[4-(1-piperindinyl)butoxy]-1(2H)-isoquinoline, reference compound]	completely abolished the selective MMR-dependent effects	–	–
COC(=O)C[C@H](NC(=O)[C@H](C)NC(=O)[C@@H](NC(=O)OCc1ccccc1)C(C)C)C(=O)CF [Z-VAD-FMK, reference compound] (Cbz-Val-Ala-Asp(OMe)-CH2F)	–	–	protection from rhodium by the caspase inhibitor at 20 M (so in the source) (HCT116O cells [1]; MTT, HCT116N and HCT116O, with [Rh(HDPA)2chrysi]^3+): no protection from rhodium; protection from rhodium by the caspase inhibitor at 40 μM (HCT116O cells [1]; MTT, HCT116O, with [Rh(HDPA)2chrysi]^3+): some protection from rhodium
[Rh(DPAE)2chrysi]^3+	–	increased cytotoxicity to the MMR-deficient HCT116O cells	incubation time at which cell selective activity is exhibited (HCT116O cells [1]; HCT116O versus HCT116N): ≤ 6 h; share of cellular rhodium complex that is nuclear (HCT116O cells [2]): greater percentage
[Rh(MeDPA)2chrysi]Cl3 [[Rh(MeDPA)2chrysi]^3+]	–	differential toxicity against the HCT116O cell line comparable to that of [Rh(HDPA)2chrysi]^3+	toxicity in MMR-deficient HCT116O versus HCT116N cells at 48 hours (HCT116O cells [1]; MTT, 48 hours): enhance toxicity in the MMR-deficient HCT116O cells
[Rh(NH3)4phzi]Cl3 [[Rh(NH3)4phzi]^3+]	–	selective cytotoxicities towards the MMR-deficient HCT116O cells	–
[Rh(PrDPA)2chrysi]^3+	–	–	selectivity of inhibitory effects after 72 hours (HCT116O cells [1]; MTT, HCT116N and HCT116O, 72 hours): non-selective inhibitory effects; mitochondrial rhodium content (HCT116O cells [2]): greater than that of cells incubated with [Rh(DPAE)2(chrysi)]^3+
[Rh(bpy)2chrysi]^3+	–	–	cytotoxicity (known property) (HCT116O cells [3]): non-toxic
[Rh(chrysi)(phen)(DPE)]Cl3 [[Rh(chrysi)(phen)(DPE)]^2+]	–	selective cytotoxicities towards the MMR-deficient HCT116O cells	–
[Rh(chrysi)(phen)(PPE)]^2+	–	selective cytotoxicities towards the MMR-deficient HCT116O cells	–
[Rh(chrysi)(phen)(PyPrO)]^2+	–	selective cytotoxicities towards the MMR-deficient HCT116O cells	–
